Test results: PubChem BioAssay (NCI)
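A five-concentration, 48-hour dose response in 96-well plates underlies each endpoint, interpolated linearly between surrounding concentrations. GI50: concentration for 50% inhibition of growth. The concentration for full growth arrest is given as TGI.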

Assays:
Assay in all cases: growth of human tumour cells (NCI), 48 h
MCF7 breast = system: MCF7 breast
SK-MEL-28 melanoma = system: SK-MEL-28 melanoma
OVCAR-5 ovarian = system: OVCAR-5 ovarian
MOLT-4 leukemia = system: MOLT-4 leukemia
EKVX NSCLC = system: EKVX NSCLC
PC-3 prostate = system: PC-3 prostate
SR leukemia = system: SR leukemia
SW-620 colon = system: SW-620 colon
SF-268 CNS = system: SF-268 CNS
IGROV1 ovarian = system: IGROV1 ovarian
OVCAR-8 ovarian = system: OVCAR-8 ovarian
TK-10 renal = system: TK-10 renal
K-562 leukemia = system: K-562 leukemia
HCT-116 colon = system: HCT-116 colon
SF-539 CNS = system: SF-539 CNS
HS 578T breast = system: HS 578T breast
MALME-3M melanoma = system: MALME-3M melanoma
A549 NSCLC = system: A549 NSCLC
BT-549 breast = system: BT-549 breast
T-47D breast = system: T-47D breast
UO-31 renal = system: UO-31 renal
UACC-62 melanoma = system: UACC-62 melanoma
KM12 colon = system: KM12 colon
RPMI-8226 leukemia = system: RPMI-8226 leukemia
COLO 205 colon = system: COLO 205 colon
CAKI-1 renal = system: CAKI-1 renal
MDA-MB-435 = system: MDA-MB-435
SK-MEL-2 melanoma = system: SK-MEL-2 melanoma
RXF 393 renal = system: RXF 393 renal
DU-145 prostate = system: DU-145 prostate
NCI-H460 lung = system: NCI-H460 lung
SF-295 CNS = system: SF-295 CNS
MDA-MB-231 breast = system: MDA-MB-231 breast
SNB-19 CNS = system: SNB-19 CNS
M14 melanoma = system: M14 melanoma
OVCAR-3 ovarian = system: OVCAR-3 ovarian
NCI-H522 lung = system: NCI-H522 lung
HT29 colon = system: HT29 colon
786-0 renal = system: 786-0 renal
HOP-62 NSCLC = system: HOP-62 NSCLC
SK-OV-3 ovarian = system: SK-OV-3 ovarian
HCT-15 colon = system: HCT-15 colon
HCC-2998 colon = system: HCC-2998 colon
SN12C renal = system: SN12C renal
UACC-257 melanoma = system: UACC-257 melanoma
U251 CNS = system: U251 CNS
NCI-H23 lung = system: NCI-H23 lung
NCI/ADR-RES ovarian = system: NCI/ADR-RES ovarian
NCI-H226 lung = system: NCI-H226 lung
SK-MEL-5 melanoma = system: SK-MEL-5 melanoma
ACHN renal = system: ACHN renal
HL-60(TB) leukemia = system: HL-60(TB) leukemia
OVCAR-4 ovarian = system: OVCAR-4 ovarian
SNB-75 CNS = system: SNB-75 CNS
A498 renal = system: A498 renal
CCRF-CEM leukemia = system: CCRF-CEM leukemia
LOX IMVI melanoma = system: LOX IMVI melanoma
HOP-92 NSCLC = system: HOP-92 NSCLC

Structure (SMILES): O=C(O)C1Cc2ccccc2OC1=O (stereo not drawn)
- TGI (MCF7 breast): > 100 µM
- TGI (SK-MEL-28 melanoma): > 100 µM
- TGI (OVCAR-5 ovarian): > 100 µM
- TGI (MOLT-4 leukemia): > 100 µM
- TGI (EKVX NSCLC): > 100 µM
- TGI (PC-3 prostate): > 100 µM
- TGI (SR leukemia): > 100 µM
- TGI (SW-620 colon): > 100 µM
- TGI (SF-268 CNS): > 100 µM
- TGI (IGROV1 ovarian): > 100 µM
- TGI (OVCAR-8 ovarian): > 100 µM
- TGI (TK-10 renal): > 100 µM
- TGI (K-562 leukemia): > 100 µM
- TGI (HCT-116 colon): > 100 µM
- TGI (SF-539 CNS): > 100 µM
- TGI (HS 578T breast): > 100 µM
- TGI (MALME-3M melanoma): > 100 µM
- TGI (A549 NSCLC): > 100 µM
- TGI (BT-549 breast): > 100 µM
- TGI (T-47D breast): > 100 µM
- TGI (UO-31 renal): > 100 µM
- TGI (UACC-62 melanoma): > 100 µM
- TGI (KM12 colon): > 100 µM
- TGI (RPMI-8226 leukemia): > 100 µM
- TGI (COLO 205 colon): > 100 µM
- TGI (CAKI-1 renal): > 100 µM
- TGI (MDA-MB-435): > 100 µM
- TGI (SK-MEL-2 melanoma): > 100 µM
- TGI (RXF 393 renal): > 100 µM
- TGI (DU-145 prostate): > 100 µM
- TGI (NCI-H460 lung): > 100 µM
- TGI (SF-295 CNS): > 100 µM
- TGI (MDA-MB-231 breast): > 100 µM
- TGI (SNB-19 CNS): > 100 µM
- TGI (M14 melanoma): > 100 µM
- TGI (OVCAR-3 ovarian): > 100 µM
- TGI (NCI-H522 lung): > 100 µM
- TGI (HT29 colon): > 100 µM
- TGI (786-0 renal): > 100 µM
- TGI (HOP-62 NSCLC): > 100 µM
- TGI (SK-OV-3 ovarian): > 100 µM
- TGI (HCT-15 colon): > 100 µM
- TGI (HCC-2998 colon): > 100 µM
- TGI (SN12C renal): > 100 µM
- TGI (UACC-257 melanoma): > 100 µM
- TGI (U251 CNS): > 100 µM
- TGI (NCI-H23 lung): > 100 µM
- TGI (NCI/ADR-RES ovarian): > 100 µM
- TGI (NCI-H226 lung): > 100 µM
- TGI (SK-MEL-5 melanoma): > 100 µM
- TGI (ACHN renal): > 100 µM

Structure (SMILES): CSc1ccc(C(=O)/C=C/c2ccc(F)cc2)cc1
- GI50 (MCF7 breast): 28.5 µM
- TGI (MCF7 breast): 70 µM
- GI50 (SK-MEL-28 melanoma): 69.3 µM
- TGI (SK-MEL-28 melanoma): > 100 µM
- GI50 (OVCAR-5 ovarian): 99.6 µM
- TGI (OVCAR-5 ovarian): > 100 µM
- GI50 (MOLT-4 leukemia): 33.9 µM
- TGI (MOLT-4 leukemia): 94.4 µM
- GI50 (EKVX NSCLC): > 100 µM
- TGI (EKVX NSCLC): > 100 µM
- GI50 (PC-3 prostate): 49.9 µM
- TGI (PC-3 prostate): > 100 µM
- GI50 (SR leukemia): 25.7 µM
- TGI (SR leukemia): 51.5 µM
- GI50 (SW-620 colon): 24.8 µM
- TGI (SW-620 colon): 70.8 µM
- GI50 (SF-268 CNS): 75.9 µM
- TGI (SF-268 CNS): > 100 µM
- GI50 (IGROV1 ovarian): 28.2 µM
- TGI (IGROV1 ovarian): 65.9 µM
- GI50 (HL-60(TB) leukemia): 48.9 µM
- TGI (HL-60(TB) leukemia): > 100 µM
- GI50 (OVCAR-8 ovarian): > 100 µM
- TGI (OVCAR-8 ovarian): > 100 µM
- GI50 (TK-10 renal): 85.3 µM
- TGI (TK-10 renal): > 100 µM
- GI50 (K-562 leukemia): 25.9 µM
- TGI (K-562 leukemia): 65.3 µM
- GI50 (HCT-116 colon): 20.7 µM
- TGI (HCT-116 colon): 36.6 µM
- GI50 (SF-539 CNS): 49.6 µM
- TGI (SF-539 CNS): > 100 µM
- GI50 (HS 578T breast): > 100 µM
- TGI (HS 578T breast): > 100 µM
- GI50 (OVCAR-4 ovarian): 76.2 µM
- TGI (OVCAR-4 ovarian): > 100 µM
- GI50 (A549 NSCLC): 64.4 µM
- TGI (A549 NSCLC): > 100 µM
- GI50 (SNB-75 CNS): 7.05 µM
- TGI (SNB-75 CNS): > 100 µM
- GI50 (BT-549 breast): 40 µM
- TGI (BT-549 breast): > 100 µM
- GI50 (T-47D breast): 96.4 µM
- TGI (T-47D breast): > 100 µM
- GI50 (UO-31 renal): > 100 µM
- TGI (UO-31 renal): > 100 µM
- GI50 (UACC-62 melanoma): > 100 µM
- TGI (UACC-62 melanoma): > 100 µM
- GI50 (KM12 colon): 70.9 µM
- TGI (KM12 colon): > 100 µM
- GI50 (RPMI-8226 leukemia): 22.9 µM
- TGI (RPMI-8226 leukemia): 54.2 µM
- GI50 (COLO 205 colon): > 100 µM
- TGI (COLO 205 colon): > 100 µM
- GI50 (CAKI-1 renal): > 100 µM
- TGI (CAKI-1 renal): > 100 µM
- GI50 (MDA-MB-435): 33.5 µM
- TGI (MDA-MB-435): 78.3 µM
- GI50 (SK-MEL-2 melanoma): > 100 µM
- TGI (SK-MEL-2 melanoma): > 100 µM
- GI50 (RXF 393 renal): > 100 µM
- TGI (RXF 393 renal): > 100 µM
- GI50 (DU-145 prostate): 54.8 µM
- TGI (DU-145 prostate): > 100 µM
- GI50 (NCI-H460 lung): 70.2 µM
- TGI (NCI-H460 lung): > 100 µM
- GI50 (SF-295 CNS): 33.4 µM
- TGI (SF-295 CNS): > 100 µM
- GI50 (A498 renal): 26.7 µM
- TGI (A498 renal): 95.5 µM
- GI50 (CCRF-CEM leukemia): 25.5 µM
- TGI (CCRF-CEM leukemia): 82.6 µM
- GI50 (MDA-MB-231 breast): 74.6 µM
- TGI (MDA-MB-231 breast): > 100 µM
- GI50 (SNB-19 CNS): > 100 µM
- TGI (SNB-19 CNS): > 100 µM
- GI50 (M14 melanoma): > 100 µM
- TGI (M14 melanoma): > 100 µM
- GI50 (NCI-H522 lung): 38.9 µM
- TGI (NCI-H522 lung): > 100 µM
- GI50 (HT29 colon): 19.5 µM
- TGI (HT29 colon): > 100 µM
- GI50 (786-0 renal): > 100 µM
- TGI (786-0 renal): > 100 µM
- GI50 (HOP-62 NSCLC): > 100 µM
- TGI (HOP-62 NSCLC): > 100 µM
- GI50 (SK-OV-3 ovarian): > 100 µM
- TGI (SK-OV-3 ovarian): > 100 µM
- GI50 (HCT-15 colon): 29.4 µM
- TGI (HCT-15 colon): > 100 µM
- GI50 (HCC-2998 colon): 41.8 µM
- TGI (HCC-2998 colon): > 100 µM
- GI50 (SN12C renal): > 100 µM
- TGI (SN12C renal): > 100 µM
- GI50 (LOX IMVI melanoma): 29.1 µM
- TGI (LOX IMVI melanoma): 83.4 µM
- GI50 (UACC-257 melanoma): > 100 µM
- TGI (UACC-257 melanoma): > 100 µM
- GI50 (U251 CNS): 32.9 µM
- TGI (U251 CNS): > 100 µM
- GI50 (NCI-H23 lung): > 100 µM
- TGI (NCI-H23 lung): > 100 µM
- GI50 (NCI/ADR-RES ovarian): > 100 µM
- TGI (NCI/ADR-RES ovarian): > 100 µM
- GI50 (NCI-H226 lung): 57.4 µM
- TGI (NCI-H226 lung): > 100 µM
- GI50 (SK-MEL-5 melanoma): 75 µM
- TGI (SK-MEL-5 melanoma): > 100 µM
- GI50 (ACHN renal): > 100 µM
- TGI (ACHN renal): > 100 µM
- GI50 (HOP-92 NSCLC): 75.9 µM
- TGI (HOP-92 NSCLC): > 100 µM
